# Experimental data as given in patent US10357514B2, “Treatment of cancer using anti-CD19 Chimeric Antigen Receptor” (The Trustees of the University of Pennsylvania, priority 2014, dated 2019).
# “Also recorded” adds a separate entry of the source.
# Legend:
# [1] = tested on: 3 influenza vaccine strains; assay: Primary endpoint: HI GMT ratio relative to placebo in at least 2 out of 3 influenza vaccine strains; type: in vivo, human; settings: for primary endpoint (>=1.2-fold GMT increase relative to placebo in at least 2 of 3 strains): ITT population
# Excerpt: The primary analysis of geometric mean titer ratios was done using a normal Bayesian regression model with non-informative priors. This model was fitted to each antibody titer on the log scale. The primary outcome in each model was the Day 84 measurement. The Day 63 measurement was included in the outcome vector. The model fitted using SAS 9.2 proc mixed with the prior statement. The covariance structure of the matrix was considered as unstructured (option type=UN). A flat prior was used. For the secondary analysis of seroconversion rates, logistic regression was used.
# The intention to treat population was defined as all subjects who received at least one full dose of study drug and who had no major protocol deviations impacting efficacy data. 199 out of the total of 218 subjects enrolled in the study were in the intention to treat population.
# The ability of RAD001 to improve immune function in elderly volunteers was evaluated by measuring the serologic response to the 2012 seasonal influenza vaccine. The hemagglutination inhibition (HI) geometric mean titers (GMT) to each of the 3 influenza vaccine strains at baseline and 4 weeks after influenza vaccination are provided in Table 10. The primary analysis variable was the HI GMT ratio (4 weeks post vaccination/baseline). […] This endpoint was chosen because a 1.2-fold increase in the influenza GMT ratio induced by the MF-59 vaccine adjuvant was associated with a decrease in influenza illness (Iob, A et al. (2005) Epidemiol Infect 133:687-693).
# Elderly volunteers >=65 years of age were randomized to one of the 3 RAD001 treatment groups (50 subjects per arm) or placebo (20 subjects per arm). […] Response to influenza vaccination was assessed by measuring the geometric mean titers (GMTs) by hemagglutination inhibition assay to the 3 influenza strains (H1N1, H3N2 and B influenza subtypes) in the influenza vaccine 4 weeks after vaccination. […] Antibody titers to 7 of the serotypes were measured in our subjects.
# [2] = Adverse event assessment in elderly volunteers, randomized placebo-controlled trial; settings: N = 53
smiles,measurement,setting,value
"CO[C@H]1C[C@@H]2CC[C@@H](C)[C@@](O)(O2)C(=O)C(=O)N2CCCC[C@H]2C(=O)O[C@H]([C@H](C)C[C@@H]2CC[C@@H](OCCO)[C@H](OC)C2)CC(=O)[C@H](C)/C=C(\C)[C@@H](O)[C@@H](OC)C(=O)[C@H](C)C[C@H](C)/C=C/C=C/C=C/1C [RAD001, (1R,9S,12S,15R,16E,18R,19R,21R,23S,24E,26E,28E,30S,32S,35R)-1,18-dihydroxy-12-{(1R)-2-[(1S,3R,4R)-4-(2-hydroxyethoxy)-3-methoxycyclohexyl]-1-methylethyl}-19,30-dimethoxy-15,17,21,23,29,35-hexamethyl-11,36-dioxa-4-aza-tricyclo[30.3.1.04,9]hexatriaconta-16,24,26,28-tetraene-2,3,10,14,20-pentaone]",primary endpoint (>=1.2-fold GMT increase relative to placebo in at least 2 of 3 strains),[1]; 0.5 mg daily or 5 mg weekly,met the GMT primary endpoint
same,primary endpoint (>=1.2-fold GMT increase relative to placebo in at least 2 of 3 strains),[1]; 20 mg weekly,"not higher dose (20 mg weekly) cohort met the primary endpoint; also recorded: unlike the 20 mg weekly dose, met the GMT primary endpoint"
same,increase in titers in subgroup versus ITT population,[1]; subjects with low baseline influenza titers (<=1:40),greater RAD001-associated increase in titers
same,Treatment-related AE incidence: Blood cholesterol increased,[2]; 0.5 mg daily,2 (3.8%) n (%)
same,Treatment-related AE incidence: Conjunctivitis,[2]; 0.5 mg daily,0 n (%)
same,Treatment-related AE incidence: Diarrhea,[2]; 0.5 mg daily,1 (1.9%) n (%)
same,Treatment-related AE incidence: Dry mouth,[2]; 0.5 mg daily,0 n (%)
same,Treatment-related AE incidence: Dyspepsia,[2]; 0.5 mg daily,0 n (%)
same,Treatment-related AE incidence: Erythema,[2]; 0.5 mg daily,0 n (%)
same,Treatment-related AE incidence: Fatigue,[2]; 0.5 mg daily,0 n (%)
same,Treatment-related AE incidence: Headache,[2]; 0.5 mg daily,0 n (%)
same,Treatment-related AE incidence: Insomnia,[2]; 0.5 mg daily,1 (1.9%) n (%)
same,Treatment-related AE incidence: Limb discomfort,[2]; 0.5 mg daily,0 n (%)
same,Treatment-related AE incidence: Low density lipoprotein increased,[2]; 0.5 mg daily,2 (3.8%) n (%)
same,Treatment-related AE incidence: Mouth ulceration,[2]; 0.5 mg daily,6 (11.3%) n (%)
same,Treatment-related AE incidence: Mucosal inflammation,[2]; 0.5 mg daily,0 n (%)
same,Treatment-related AE incidence: Neutropenia,[2]; 0.5 mg daily,0 n (%)
same,Treatment-related AE incidence: Oral pain,[2]; 0.5 mg daily,0 n (%)
same,Treatment-related AE incidence: Paresthesia oral,[2]; 0.5 mg daily,2 (3.8%) n (%)
same,Treatment-related AE incidence: Pruritus,[2]; 0.5 mg daily,0 n (%)
same,Treatment-related AE incidence: Stomatitis,[2]; 0.5 mg daily,0 n (%)
same,Treatment-related AE incidence: Thrombocytopenia,[2]; 0.5 mg daily,0 n (%)
same,Treatment-related AE incidence: Tongue ulceration,[2]; 0.5 mg daily,3 (5.7%) n (%)
same,Treatment-related AE incidence: Urinary tract infection,[2]; 0.5 mg daily,0 n (%)
same,Treatment-related AEs: Patients with AE(s),[2]; 0.5 mg daily,22 (41.5%) n (%)
same,Treatment-related AEs: Total AE(s),[2]; 0.5 mg daily,35 n (%)
same,Treatment-related AE incidence: Blood cholesterol increased,[2]; 5 mg weekly,2 (3.8%) n (%)
same,Treatment-related AE incidence: Conjunctivitis,[2]; 5 mg weekly,2 (3.8%) n (%)
same,Treatment-related AE incidence: Diarrhea,[2]; 5 mg weekly,4 (7.5%) n (%)
same,Treatment-related AE incidence: Dry mouth,[2]; 5 mg weekly,0 n (%)
same,Treatment-related AE incidence: Dyspepsia,[2]; 5 mg weekly,3 (5.7%) n (%)
same,Treatment-related AE incidence: Erythema,[2]; 5 mg weekly,2 (3.8%) n (%)
same,Treatment-related AE incidence: Fatigue,[2]; 5 mg weekly,2 (3.8%) n (%)
same,Treatment-related AE incidence: Headache,[2]; 5 mg weekly,2 (3.8%) n (%)
same,Treatment-related AE incidence: Insomnia,[2]; 5 mg weekly,2 (3.8%) n (%)
same,Treatment-related AE incidence: Limb discomfort,[2]; 5 mg weekly,2 (3.8%) n (%)
same,Treatment-related AE incidence: Low density lipoprotein increased,[2]; 5 mg weekly,1 (1.9%) n (%)
same,Treatment-related AE incidence: Mouth ulceration,[2]; 5 mg weekly,2 (3.8%) n (%)
same,Treatment-related AE incidence: Mucosal inflammation,[2]; 5 mg weekly,0 n (%)
same,Treatment-related AE incidence: Neutropenia,[2]; 5 mg weekly,0 n (%)
same,Treatment-related AE incidence: Oral pain,[2]; 5 mg weekly,2 (3.8%) n (%)
same,Treatment-related AE incidence: Paresthesia oral,[2]; 5 mg weekly,0 n (%)
same,Treatment-related AE incidence: Pruritus,[2]; 5 mg weekly,2 (3.8%) n (%)
same,Treatment-related AE incidence: Stomatitis,[2]; 5 mg weekly,0 n (%)
same,Treatment-related AE incidence: Thrombocytopenia,[2]; 5 mg weekly,0 n (%)
same,Treatment-related AE incidence: Tongue ulceration,[2]; 5 mg weekly,1 (1.9%) n (%)
same,Treatment-related AE incidence: Urinary tract infection,[2]; 5 mg weekly,0 n (%)
